The values that follow are results of earlier work, collected in patent US9763439B2, “Method of packaging food” (Universidad de Santiago de Chile, priority 2013, dated 2017).

The conditions of this data set: thermoforming process (±140° C.) does not affect its stability.

In the case of `C/C=C/C=C/C(=O)[O-].[K+]` [potassium sorbate], the temperature withstood entry was “up to 270 °C”.
